# Laboratory results taken from ChEMBL document CHEMBL1201862, “PubChem BioAssay data set” (2004).
#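 Each compound was tested at five concentrations against cells in 96-well plates for 48 hours. The concentration for 50% growth inhibition is given as GI50.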 Calls of active or inactive are those of the source. Cut-off read from the data, not from the text of the source: active = GI50 up to about 1.1 µM and inactive = higher.
# Tests used:
# Test in all cases: growth of human tumour cells (NCI), 48 h
# [1] = system: ACHN
# [2] = system: UACC-62
# [3] = system: MDA-N
# [4] = system: HCT-15
# [5] = system: U-251
# [6] = system: CAKI-1
# [7] = system: KM12
# [8] = system: SNB-19
# [9] = system: SN12C
# [10] = system: OVCAR-3
# [11] = system: SF-295
# [12] = system: SW-620
# [13] = system: PC-3
# [14] = system: COLO 205
# [15] = system: EKVX
# [16] = system: RPMI-8226
# [17] = system: MOLT-4
# [18] = system: A549
# [19] = system: A498
# [20] = system: K562
# [21] = system: HCT-116
# [22] = system: SR
# [23] = system: SF-539
# [24] = system: MDA-MB-435
# [25] = system: M14
# [26] = system: HT-29
# [27] = system: HCC 2998
# [28] = system: TK-10
# [29] = system: LOX IMVI
# [30] = system: IGROV-1
# [31] = system: DU-145
# [32] = system: UO-31
# [33] = system: SNB-75
# [34] = system: MDA-MB-231
# [35] = system: UACC-257
# [36] = system: NCI-H226
# [37] = system: RXF 393
# [38] = system: HL-60
# [39] = system: SK-MEL-28
# [40] = system: NCI/ADR-RES
# [41] = system: 786-0
# [42] = system: MCF7
# [43] = system: CCRF-CEM
# [44] = system: OVCAR-5
# [45] = system: SK-MEL-5
# [46] = system: HOP-92
# [47] = system: OVCAR-4
# [48] = system: OVCAR-8
# [49] = system: SK-MEL-2
# [50] = system: SK-OV-3
# [51] = system: Malme-3M
# [52] = system: NCI-H522
# [53] = system: Hs-578T
# [54] = system: NCI-H460
# [55] = system: HOP-62
# [56] = system: NCI-H23
# [57] = system: SF-268
compound,measurement,setting,value
Cc1cc2c(C(C)C)c(O)c(O)c(C=O)c2c(O)c1-c1c(C)cc2c(C(C)C)c(O)c(O)c(C=O)c2c1O,GI50,[1],5.51 µM (inactive)
same,GI50,[2],4.7 µM (inactive)
same,GI50,[3],87.7 µM (inactive)
same,GI50,[4],5.18 µM
same,GI50,[5],3.52 µM (inactive)
same,GI50,[6],3.39 µM (inactive)
same,GI50,[7],2.07 µM (inactive)
same,GI50,[8],7.24 µM (inactive)
same,GI50,[9],6.14 µM (inactive)
same,GI50,[10],2.3 µM (inactive)
same,GI50,[11],2.81 µM (inactive)
same,GI50,[12],7.06 µM (inactive)
same,GI50,[13],5.04 µM (inactive)
same,GI50,[14],4.35 µM (inactive)
same,GI50,[15],1.32 µM (inactive)
same,GI50,[16],4.38 µM (inactive)
same,GI50,[17],2.24 µM (inactive)
same,GI50,[18],5.69 µM (inactive)
same,GI50,[19],4.47 µM (inactive)
same,GI50,[20],2.16 µM (inactive)
CCCCOCn1c(=O)[nH]c(=O)c2cc(Br)ccc21,GI50,[1],14.3 µM (inactive)
same,GI50,[2],42.5 µM (inactive)
same,GI50,[21],38.5 µM (inactive)
same,GI50,[3],55.2 µM (inactive)
same,GI50,[22],46.2 µM (inactive)
same,GI50,[23],> 100 µM (inactive)
same,GI50,[24],68.2 µM (inactive)
same,GI50,[25],87.1 µM (inactive)
same,GI50,[4],44.2 µM
same,GI50,[5],95.1 µM (inactive)
same,GI50,[26],23.4 µM (inactive)
same,GI50,[6],20.8 µM (inactive)
same,GI50,[27],> 100 µM (inactive)
same,GI50,[28],53.5 µM (inactive)
same,GI50,[29],58.5 µM (inactive)
same,GI50,[7],36.5 µM (inactive)
same,GI50,[30],40.6 µM (inactive)
same,GI50,[8],33.2 µM (inactive)
same,GI50,[9],48.1 µM (inactive)
same,GI50,[10],45.9 µM (inactive)
same,GI50,[31],> 100 µM (inactive)
same,GI50,[32],18.5 µM (inactive)
same,GI50,[33],39.7 µM (inactive)
same,GI50,[34],33.8 µM (inactive)
same,GI50,[35],43.9 µM (inactive)
same,GI50,[36],12.6 µM (inactive)
same,GI50,[37],42.3 µM (inactive)
same,GI50,[11],54.6 µM (inactive)
same,GI50,[12],> 100 µM (inactive)
same,GI50,[38],42.5 µM (inactive)
same,GI50,[39],> 100 µM (inactive)
same,GI50,[13],35.2 µM (inactive)
same,GI50,[14],72.1 µM (inactive)
same,GI50,[40],19.1 µM (inactive)
same,GI50,[41],53.3 µM (inactive)
same,GI50,[42],42.5 µM (inactive)
same,GI50,[15],22.6 µM (inactive)
same,GI50,[17],44.1 µM (inactive)
same,GI50,[43],59.4 µM (inactive)
same,GI50,[44],> 100 µM (inactive)
same,GI50,[45],33.1 µM (inactive)
same,GI50,[46],51.1 µM (inactive)
same,GI50,[18],48.2 µM (inactive)
same,GI50,[47],49.3 µM (inactive)
same,GI50,[48],31.1 µM (inactive)
same,GI50,[19],54.6 µM (inactive)
same,GI50,[49],40.2 µM (inactive)
same,GI50,[20],51.8 µM (inactive)
same,GI50,[50],> 100 µM (inactive)
O=C(NCCCn1ccnc1[N+](=O)[O-])C(=O)NCCCn1ccnc1[N+](=O)[O-],GI50,[1],> 100 µM (inactive)
same,GI50,[21],> 100 µM (inactive)
same,GI50,[22],> 100 µM (inactive)
same,GI50,[23],> 100 µM (inactive)
same,GI50,[4],> 100 µM
same,GI50,[5],> 100 µM (inactive)
same,GI50,[26],> 100 µM (inactive)
same,GI50,[51],> 100 µM (inactive)
same,GI50,[27],> 100 µM (inactive)
same,GI50,[28],31.3 µM (inactive)
same,GI50,[7],> 100 µM (inactive)
same,GI50,[9],90.6 µM (inactive)
same,GI50,[10],> 100 µM (inactive)
same,GI50,[33],> 100 µM (inactive)
same,GI50,[52],> 100 µM (inactive)
same,GI50,[35],> 100 µM (inactive)
same,GI50,[36],> 100 µM (inactive)
same,GI50,[53],> 100 µM (inactive)
same,GI50,[11],> 100 µM (inactive)
same,GI50,[38],> 100 µM (inactive)
same,GI50,[39],> 100 µM (inactive)
same,GI50,[13],> 100 µM (inactive)
same,GI50,[54],> 100 µM (inactive)
same,GI50,[55],> 100 µM (inactive)
same,GI50,[41],> 100 µM (inactive)
same,GI50,[56],> 100 µM (inactive)
same,GI50,[42],> 100 µM (inactive)
same,GI50,[15],> 100 µM (inactive)
same,GI50,[16],> 100 µM (inactive)
same,GI50,[17],> 100 µM (inactive)
same,GI50,[43],> 100 µM (inactive)
same,GI50,[44],> 100 µM (inactive)
same,GI50,[57],> 100 µM (inactive)
same,GI50,[48],69.2 µM (inactive)
same,GI50,[49],45.2 µM (inactive)
same,GI50,[20],> 100 µM (inactive)
